Test results published in patent publication US20120258170A1, “PHARMACEUTICAL CO-CRYSTALS OF QUERCETIN” (Nutracryst Therapeutics Private Limited, priority 2009, published 2012).
Entries after “also recorded” stand apart in the source; their conditions may differ. Like-named read-outs stand apart in the source and are kept apart here.

Key:
db/db mice [1] = test: Acute effect of test compounds on plasma glucose levels in db/db mice; format: in vivo; conditions: for % Reduction in plasma glucose (acute): 0 hr vs 3 hr post single dose 300 mg/kg per oral; for % Reduction in plasma glucose (acute) / 3 Hr plasma glucose / 0 Hr plasma glucose: Mean ± SEM; for 3 Hr plasma glucose: 3 hrs post single dose 300 mg/kg per oral; for 0 Hr plasma glucose: 4 hrs fasted, before dosing, 300 mg/kg per oral group
Experimental: (§1) Db/db mice were acclimatized to dosing and exposed to tail cut and r.o.p bleeding. Animals were grouped based on plasma glucose, triglyceride and cholesterol values. Acute effect of test compound on plasma glucose levels determined 3 hrs post dosing followed by administration of test compound for 21 days. After 14 days treatment, 4 hrs fasting plasma glucose levels were measured. After 21 days treatment, 4 hrs fasting plasma glucose levels were measured followed by test compound administration and measurement of plasma glucose levels 3 hrs post dosing.
(§2) Kits: Plasma glucose, cholesterol and triglyceride were measured using Dade Behring auto analyzer. Plasma insulin values measured using Rat/mouse insulin ELISA kit (Millipore, lot no 16006280). Tail cut method plasma glucose values measured using Contour TS glucometer strips (Lot WK8MD3E32A).
(§3) Compounds and Vehicle: All test-compounds were formulated in tween CMC (10% of 2.5% tween 80+90% of 0.25% CMC) and prepared daily about 1 hr before administration. Animals were dosed for 21 days through oral gavage at dose volume of 10 ml/kg body weight.
On the day of initiating study animals were fasted for 4 hrs and plasma glucose was measured with Glucometer by tail cut method. Animals were dosed with test compound/vehicle according to their body weight and 3 hrs post dosing plasma glucose levels were measured with Glucometer Immediately animals were provided with measured amount of feed.
Acute effect percent reduction in PG was calculated for each animal using the formula
{(0 hr PG−test hr PG)/0 hr PG}×100
(§4) Statistics were applied using One-Way ANOVA followed by Dunnett's test using sigma stat software.

db/db mice [2] = test: Chronic effect on plasma profile (PG, TC, TG), 4 hrs fasted, before dosing, in db/db mice; format: in vivo; conditions: for 14th day PG / 14th day TC / 14th day TG: 14 days 300 mg/kg once daily per oral, pre dosing; for 14th day PG / 14th day TC / 14th day TG / 21st day PG / 21st day TC / 21st day TG: 4 hr fasting; for % Red PG, 14th day / % Red TC, 14th day / % Red TG, 14th day: 14 days 300 mg/kg once daily; for % Red PG, 14th day / % Red TC, 14th day / % Red TG, 14th day / % Red PG, 21st day: adjusted for control and basal; for 21st day PG / 21st day TC / 21st day TG: 21 days 300 mg/kg once daily per oral, predosing; for % Red PG, 21st day / % Red TC (plasma cholesterol), 21st day / % Red TG (plasma triglyceride), 21st day: 21 days 300 mg/kg once daily; for % Red TC (plasma cholesterol), 21st day / % Red TG (plasma triglyceride), 21st day: post 4 hrs fasting, without dosing on the day; for Basal PG / Basal TC / Basal TG: 4 hrs fasted, before treatment, Mean ± SEM
Experimental: as §1, §2, §3
(§5) Animals were dosed daily at around 10 AM to 11 AM with corresponding test compounds/vehicle at a volume of 10 ml/kg of body weight. Body weight, water intake and food intake was measured daily. After 14 days treatment plasma profile (PG, TG & TC) was measured in 4 hrs fasted animals. On that day animals were dosed post bleeding after keeping feed at 4 PM. After 21 days treatment plasma profile (PG, TG & TC) was measured in 4 hrs fasted animals. After bleeding, animals were administered with test compounds/vehicle and plasma glucose was measured 3 hrs post dosing with Glucometer. Immediately animals were provided with feed.
(§6) Blood samples from r.o.p bleeding were collected in micro centrifuge tubes containing 5 ul of EDTA Na ([…]). Plasma separated by centrifuging blood samples at 6000 rpm at 40 C for 5 minutes. Plasma glucose, total cholesterol and triglyceride were measured using Dade Bhering auto analyser. Plasma insulin was measured (in duplicate samples), using Millipore mouse/rat insulin ELISA kit.
(§7) The percent reduction in plasma profile parameters were calculated using the formula 1−(tt/tc)/bt/bc)×100; where tt: test day treated group mean value of the parameter; tc: test day control group mean value of the parameter; bc: Basal Control group mean value; bt: Basal treated group mean value.
as §4

db/db mice [3] = test: Chronic effect (21 days) on plasma glucose 3 hrs post dosing in db/db mice; format: in vivo; conditions: for % Red PG, 21th day 3 hr post dosing / 21th day 3 hr post dosing PG: 21 days 300 mg/kg once daily, then dose; for 21th day 3 hr post dosing PG: Mean ± SEM
Experimental: as §1, §2, §3, §5, §7, §4

db/db mice [4] = test: Chronic effect on plasma insulin levels in db/db mice; format: in vivo; conditions: for % Reduction@ in plasma insulin: 21th day, calculated after adjusting for control group change; for 21th day insulin: 21 days 300 mg/kg once daily, 4 hr fasting, predosing; for % Reduction in plasma insulin: basal vs 21th day; for % Reduction in plasma insulin / Basal insulin: Mean ± SEM; for Basal insulin: before treatment
Experimental: as §2, §3, §5, §6, §7, §4

[5] = Chronic effect on body weight in db/db mice; format: in vivo; conditions: Mean ± SEM; for Final day Body weight: after 21 days 300 mg/kg once daily; for % Increase in body weight: basal to final day
Experimental: as §3, §5, §4

[6] = water
Experimental: The compounds disclosed herein are finely ground and passed through standard mesh filter and particles with 75-180 micron, and are tested for their solubility and dissolution profile.
The solubility studies for co-crystals and salts were performed according to Higuchi and Connor's method with some variations. Excess amounts (100 mg) of the samples were suspended in 10 mL of water in round bottom flask. Solutions were stirred at 300 rpm using a magnetic stirrer. After 72 h, the suspensions were filtered through a paper filter (Whatman 40)) and filtered aliquots were sufficiently diluted, the absorbance of the samples were measured at 232 nm and the values were normalized for API. […] A standard graph was made by measuring the absorbance of varied concentrations of API in water using a UV spectrophotometer (Nanodrop UV/vis spectrometer) at λmax 232 nm.

[7] = Stability of the co-crystal
[8] = cited from earlier work

Row | Structure (SMILES) | % Reduction in plasma glucose (acute) (db/db mice [1]) | 3 Hr plasma glucose (db/db mice [1]) | 0 Hr plasma glucose (db/db mice [1]) | 14th day PG (db/db mice [2]) | 14th day TC (db/db mice [2]) | 14th day TG (db/db mice [2]) | % Red PG, 14th day (db/db mice [2]) | % Red TC, 14th day (db/db mice [2]) | % Red TG, 14th day (db/db mice [2]) | 21st day PG (db/db mice [2]) | 21st day TC (db/db mice [2]) | 21st day TG (db/db mice [2]) | % Red PG, 21st day (db/db mice [2]) | % Red TC (plasma cholesterol), 21st day (db/db mice [2]) | % Red TG (plasma triglyceride), 21st day (db/db mice [2]) | Basal PG (db/db mice [2]) | Basal TC (db/db mice [2]) | Basal TG (db/db mice [2]) | % Red PG, 21th day 3 hr post dosing (db/db mice [3]) | 21th day 3 hr post dosing PG (db/db mice [3]) | further results
1 | CN(C)C(=N)NC(=N)N.CN(C)C(=N)NC(=N)N.O.O.O=c1c(O)c(-c2ccc(O)c(O)c2)oc2cc(O)cc(O)c12 [ILB-MCO-0905Q, Quercetin dihydrate+Metformin free base co-crystal (1:2)] | 48 ± 4 % | 186 ± 21 mg/dL | 358 ± 34 mg/dL | 417.71 ± 37.85 mg/dL | 153.68 ± 3.49 mg/dL | 126.70 ± 6.25 mg/dL | 8% | 2% | 8% | 368.96 ± 32.95 mg/dL | 160.25 ± 4.29 mg/dL | 129.66 ± 5.38 mg/dL | 14% | 13% | 27% | 399.40 ± 26.54 mg/dL | 160.42 ± 3.77 mg/dL | 135.94 ± 6.92 mg/dL | 38% | 225 ± 33 mg/dL | plasma glucose levels 3 hrs post dosing with single dose (in words) (db/db mice [1]; acute administration, 300 mg/kg, vs control group, 300 mg/kg): Significant lowering; also recorded: significant reduction; 4 hrs fasting plasma glucose levels after 21 days treatment (in words) (db/db mice [2]; chronic treatment 21 days, 300 mg/kg): did not show significant reduction; plasma glucose levels 3 hrs post dosing after 21 days treatment followed by administration on day 21 (in words) (db/db mice [3]; 300 mg/kg): significant lowering; also recorded: significant reduction; % Reduction@ in plasma insulin (db/db mice [4]): 45%; 21th day insulin (db/db mice [4]): 3.03 ± 0.42 ng/mL; plasma insulin levels after 21 days treatment (in words) (db/db mice [4]; 21 days, 300 mg/kg, compared to control group): significant reduction; % Reduction in plasma insulin (db/db mice [4]): 30.56 ± 8.10 %; Basal insulin (db/db mice [4]): 4.55 ± 0.50 ng/mL; Final day Body weight [5]: 43.7 ± 1 g; % Increase in body weight [5]: 10.1 ± 2.5%; Basal Body weight [5]: 39.2 ± 0.8 g; solubility compared with the parent molecule Quercetin ([6]; listed as Quercetin dihydrate-Metformin co-crystal): substantially improved; solubility compared with the parent molecule Quercetin ([6]; listed as Quercetin dihydrate-Metformin co-crystals): greater than the parent molecule; stability under accelerated conditions ([7]; accelerated conditions): stable; stability monitored once in seven days for 3 months ([7]; desiccated conditions): stable; hygroscopicity ([7]; normal conditions): hygroscopic
2 | O.O.O=c1c(O)c(-c2ccc(O)c(O)c2)oc2cc(O)cc(O)c12 [ILB-MCO-0904Q, Quercetin dihydrate] | 31 ± 4% | 293 ± 65 mg/dL | 398 ± 67 mg/dL | 476.41 ± 45.57 mg/dL | 154.43 ± 6.50 mg/dL | 129.08 ± 5.61 mg/dL | −4% | −1% | 8% | 432.69 ± 42.38 mg/dL | 151.25 ± 4.93 mg/dL | 141.99 ± 8.25 mg/dL | 0% | 15% | 21% | 402.50 ± 26.82 mg/dL | 156.25 ± 4.53 mg/dL | 138.00 ± 8.04 mg/dL | 4% | 345 ± 41 mg/dL | effect on plasma glucose levels with acute or chronic administration (in words) (db/db mice [2]; 300 mg/kg): Did not show significant effect; % Reduction@ in plasma insulin (db/db mice [4]): 18%; 21th day insulin (db/db mice [4]): 2.90 ± 0.33 ng/mL; % Reduction in plasma insulin (db/db mice [4]): 0.29 ± 9.87%; Basal insulin (db/db mice [4]): 2.94 ± 0.20 ng/mL; Final day Body weight [5]: 44.6 ± 1.3 g; % Increase in body weight [5]: 12.2 ± 2.3%; Basal Body weight [5]: 39.1 ± 1.2 g
3 | N[C@@H](CC(=O)N1CCn2c(nnc2C(F)(F)F)C1)Cc1cc(F)c(F)cc1F [Sitagliptin] | – | – | – | – | – | – | – | – | – | – | – | – | – | – | – | – | – | – | – | – | Bioavailability [8]: 87%; Half Life [8]: 8 to 14 h
